Columns and labels:
Settings in all cases: exposure time: 72 h
[1] = tested on: E13 (patient-derived glioblastoma stem cells of classical subtype); experiment: surviving fraction (nuclei count normalised to DMSO); higher = more cells surviving (less toxic)
[2] = tested on: E21 (patient-derived glioblastoma stem cells of mesenchymal subtype); experiment: as above
[3] = tested on: E28 (patient-derived glioblastoma stem cells of classical subtype); experiment: as above
[4] = tested on: E31 (patient-derived glioblastoma stem cells of proneural subtype); experiment: as above
[5] = tested on: E34 (patient-derived glioblastoma stem cells of proneural subtype); experiment: as above
[6] = tested on: E57 (patient-derived glioblastoma stem cells of mesenchymal subtype); experiment: as above
[7] = tested on: FT3469 (normal neural stem cell line); experiment: as above
[8] = tested on: E13; experiment: phenotypic distance (Euclidean, principal components) from DMSO controls (arbitrary units); higher = stronger morphological change
[9] = tested on: E21; experiment: as above
[10] = tested on: E28; experiment: as above
[11] = tested on: E31; experiment: as above
[12] = tested on: E34; experiment: as above
[13] = tested on: E57; experiment: as above
[14] = tested on: FT3469; experiment: as above
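Throughout, for phenotypic distance (Euclidean, principal components) from DMSO controls: cell Painting imaging in 384-well plates, CellProfiler features reduced to at least 20 principal components, Euclidean distance versus same-plate DMSO vehicle wells (0.1% v/v), median over six images per well.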
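Throughout, for surviving fraction (nuclei count normalised to DMSO): nuclei counted by high-content imaging of Hoechst-stained cells in laminin-coated 384-well plates, relative to 0.1% DMSO vehicle wells, with staurosporine as cell-death control.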

C#C[C@]1(O)CC[C@H]2[C@@H]3CCC4=CCCC[C@@H]4[C@H]3CC[C@@]21C [Lynestrenol]
Settings	phenotypic distance	surviving fraction
[1], 4.1 nM	–	0.994
[1], 12.3 nM	–	0.901
[1], 37 nM	–	1.03
[1], 111.1 nM	–	1.05
[1], 333.3 nM	–	1.03
[1], 1000 nM	–	1.04
[1], 3000 nM	–	0.88
[2], 4.1 nM	–	1.03
[2], 12.3 nM	–	0.998
[2], 37 nM	–	1.01
[2], 111.1 nM	–	1.08
[2], 333.3 nM	–	1.07
[2], 1000 nM	–	0.975
[2], 3000 nM	–	1.08
[3], 4.1 nM	–	1.06
[3], 12.3 nM	–	1.05
[3], 37 nM	–	0.924
[3], 111.1 nM	–	1.04
[3], 333.3 nM	–	1.09
[3], 1000 nM	–	1.16
[3], 3000 nM	–	1.16
[4], 4.1 nM	–	0.991
[4], 12.3 nM	–	1.12
[4], 37 nM	–	0.813
[4], 111.1 nM	–	1.26
[4], 333.3 nM	–	0.895
[4], 1000 nM	–	1.07
[4], 3000 nM	–	1.09
[5], 4.1 nM	–	0.966
[5], 12.3 nM	–	0.988
[5], 37 nM	–	0.917
[5], 111.1 nM	–	1.24
[5], 333.3 nM	–	1.03
[5], 1000 nM	–	0.979
[5], 3000 nM	–	0.946
[6], 4.1 nM	–	1.2
[6], 12.3 nM	–	1.03
[6], 37 nM	–	1.04
[6], 111.1 nM	–	1.06
[6], 333.3 nM	–	1.08
[6], 1000 nM	–	1.17
[6], 3000 nM	–	1.08
[7], 4.1 nM	–	1.1
[7], 12.3 nM	–	1.19
[7], 37 nM	–	0.984
[7], 111.1 nM	–	1.26
[7], 333.3 nM	–	1.07
[7], 1000 nM	–	1.13
[7], 3000 nM	–	1.06
[8], 4.1 nM	0.399	–
[8], 12.3 nM	0.621	–
[8], 37 nM	0.422	–
[8], 111.1 nM	0.821	–
[8], 333.3 nM	0.697	–
[8], 1000 nM	0.59	–
[8], 3000 nM	1.03	–
[9], 4.1 nM	0.397	–
[9], 12.3 nM	0.584	–
[9], 37 nM	0.589	–
[9], 111.1 nM	0.676	–
[9], 333.3 nM	0.662	–
[9], 1000 nM	0.692	–
[9], 3000 nM	1.35	–
[10], 4.1 nM	0.488	–
[10], 12.3 nM	0.735	–
[10], 37 nM	0.493	–
[10], 111.1 nM	0.306	–
[10], 333.3 nM	0.694	–
[10], 1000 nM	0.828	–
[10], 3000 nM	0.566	–
[11], 4.1 nM	0.539	–
[11], 12.3 nM	0.803	–
[11], 37 nM	0.671	–
[11], 111.1 nM	0.989	–
[11], 333.3 nM	0.806	–
[11], 1000 nM	0.394	–
[11], 3000 nM	1.33	–
[12], 4.1 nM	0.505	–
[12], 12.3 nM	0.89	–
[12], 37 nM	0.743	–
[12], 111.1 nM	0.994	–
[12], 333.3 nM	0.472	–
[12], 1000 nM	0.846	–
[12], 3000 nM	0.609	–
[13], 4.1 nM	0.911	–
[13], 12.3 nM	0.621	–
[13], 37 nM	0.561	–
[13], 111.1 nM	0.889	–
[13], 333.3 nM	0.765	–
[13], 1000 nM	0.843	–
[13], 3000 nM	0.439	–
[14], 4.1 nM	0.64	–
[14], 12.3 nM	1.14	–
[14], 37 nM	0.738	–
[14], 111.1 nM	1.23	–
[14], 333.3 nM	0.567	–
[14], 1000 nM	0.796	–
[14], 3000 nM	0.874	–

— the supplement of paper PMC13207355
